Target: T1, HDAC10 (Homo sapiens, UniProt Q969S8)
T1 construct: purchased Eurofins Pharma Discovery Services 2662
T1 sequence (Q969S8 1-669): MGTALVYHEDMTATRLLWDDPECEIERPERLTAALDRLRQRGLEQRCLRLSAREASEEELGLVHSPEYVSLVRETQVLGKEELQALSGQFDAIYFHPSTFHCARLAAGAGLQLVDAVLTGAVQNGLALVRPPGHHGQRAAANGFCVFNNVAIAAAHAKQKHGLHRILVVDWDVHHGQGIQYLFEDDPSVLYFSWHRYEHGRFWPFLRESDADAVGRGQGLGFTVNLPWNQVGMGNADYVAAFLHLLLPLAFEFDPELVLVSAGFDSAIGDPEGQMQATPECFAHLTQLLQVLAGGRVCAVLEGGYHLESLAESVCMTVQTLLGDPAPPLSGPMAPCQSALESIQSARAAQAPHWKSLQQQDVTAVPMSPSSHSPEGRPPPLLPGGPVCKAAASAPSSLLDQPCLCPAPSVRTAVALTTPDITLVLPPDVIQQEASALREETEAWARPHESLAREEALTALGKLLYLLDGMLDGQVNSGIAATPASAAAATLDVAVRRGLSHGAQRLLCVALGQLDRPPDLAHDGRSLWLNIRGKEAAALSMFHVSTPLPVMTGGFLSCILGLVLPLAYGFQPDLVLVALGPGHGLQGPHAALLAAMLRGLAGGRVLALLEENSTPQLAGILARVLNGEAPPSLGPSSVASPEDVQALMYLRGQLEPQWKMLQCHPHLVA
Experiment: HDAC enzymatic activity (Eurofins)
Format: biochemical

## O=C(CCCCCCNC(=O)c1cnc(N(c2ccccc2)c2ccccc2)nc1)NO [Ricolinostat]
  IC50: 901 nM

— paper PMC9555642 (PLoS ONE, 2022)
